Assays:
[1] = Elimination half life in Sprague-Dawley rat at 10 mg/kg, iv by LC-MS/MS analysis; format: ADME, organism-based; conditions: in vivo, read-out: beta t1/2
[2] = Elimination half life in Sprague-Dawley rat at 500 mg/kg, po by LC-MS/MS analysis; format: ADME, organism-based; conditions: in vivo, read-out: beta t1/2

half-life [1]: 28.1 min
half-life [2]: 44.5 min
SMILES: COc1cc(/C=C/C(=O)CC(=O)/C=C/c2ccc(O)c(OC)c2)ccc1O [CURCUMIN]

Reference: ChEMBL document CHEMBL4190354, “A Realistic View on "The Essential Medicinal Chemistry of Curcumin"” (ACS Med Chem Lett, 2017)
